Literature values, collected in patent publication US20030130231A1, “2:1 Complex of beta- or gamma-cyclodextrin and alpha-tocopherol” (WACKER-CHEMIE GmbH, priority 2002, published 2003).
Read-outs that look alike come from different tables or passages of the source.

Experiments:
[1] = cited from earlier work
[2] = cited from earlier work; remark: listed apart in the source

## Cc1c(C)c2c(c(C)c1O)CC[C@@](C)(CCC[C@H](C)CCC[C@H](C)CCCC(C)C)O2 [α-tocopherol]
[1]; stored at 5° C.
  can be kept in the original packaging: up to 24 months
[1]; stored at room temperature
  can be kept in the original packaging: ≤ 12 months
[2]
  solubility in water: insoluble in water
